Assay results: publication PMC11347135 (2024)

Legend:
[1] = test system: d(CGTATACG)2 (DNA, duplex) CGTATACG; assay: X-ray crystallography, 1.58 Å
[2] = test system: d(CGTATACG)2 (DNA, duplex) CGTATACG; assay: UV melting at 260 nm; conditions: 100 mM KCl, 5 mM MgCl2; 20 mM sodium cacodylate pH 7.3; 3 μM DNA, DNA:compound 1:4; 1 °C/min

For `c1ccc2c(NCCCCNc3c4ccccc4nc4ccccc34)c3ccccc3nc2c1`, the binding ([1]; 200 mM KCl, 6 mM MnCl2, 50 mM MES pH 6.3, 10% PEG400, 20 °C, 0.5 mM DNA, 1 mM DA4) was “yes” and the Tm increase [2] was ~ 5.8 °C.
For `c1ccc2c(NCCCCCNc3c4ccccc4nc4ccccc34)c3ccccc3nc2c1`, the binding ([1]; 50 mM NaCl, 10 mM MgCl2, 25 mM bis-tris pH 7.0, 15% MPD, 20 °C, 0.3 mM DNA, DNA:DA5 1:1) was “yes” and the Tm increase [2] was ~ 8.6 °C.
